Experimental data: patent US10961309B2, “Reducing systemic regulatory T cell levels or activity for treatment of disease and injury of the CNS” (Yeda Research and Development Co. Ltd, priority 2014, dated 2021)

Columns and labels:
[1] = test system: soluble Aβ1-40 and Aβ1-42; assay: Soluble Aβ (sAβ) protein quantification by ELISA; format: in vivo, mouse; conditions: 3 weeks after 1 week ATRA treatment, AD-Tg mice
Protocol: Tissue homogenization and sAβ protein extraction was performed as previously described (Schmidt et al, 2005). Briefly, cerebral brain parenchyma was dissected and snap-frozen and kept at −80° C. until homogenization. Proteins were sequentially extracted from samples to obtain separate fractions containing proteins of differing solubility. Samples were homogenized in 10 volumes of ice-cold tissue homogenization buffer, containing 250 mM of sucrose, 20 mM of Tris base, 1 mM of ethylenediaminetetraacetic acid (EDTA), and 1 mM of ethylene glycol tetraacetic acid (pH 7.4), using a ground glass pestle in a Dounce homogenizer. After six strokes, the homogenate was mixed 1:1 with 0.4% diethylamine (DEA) in a 100-mM NaCl solution before an additional six strokes, and then centrifuged at 135,000 g at 4° C. for 45 min. The supernatant (DEA-soluble fraction containing extracellular and cytosolic proteins) was collected and neutralized with 10% of 0.5M of Tris-HCl (pH 6.8). Aβ1-40 and Aβ1-42 were individually measured by enzyme-linked immunosorbent assay (ELISA) from the soluble fraction using commercially available kits (Biolegend; #SIG-38954 and #SIG-38956, respectively) according to the manufacturer instructions.

[2] = test system: APP/PS1 mouse model of AD; conditions: weekly administration regimen (Butovsky et al, 2006); cited from earlier work

| Molecule | cerebral sAβ1-40 and sAβ1-42 levels [1] | effect in the APP/PS1 mouse model of AD [2] |
| --- | --- | --- |
| CC1=C(/C=C/C(C)=C/C=C/C(C)=C/C(=O)O)C(C)(C)CCC1 [ATRA, All-trans retinoic acid] | increased |  |
| Glatiramer acetate [GA] |  | therapeutic effect |
